Measurements taken from ChEMBL document CHEMBL4308841, “Synthesis, in vitro antiproliferative activity, and kinase inhibitory effects of pyrazole-containing diarylureas and diarylamides” (Eur J Med Chem, 2018).

Legend:
IGROV-1 = experiment: Growth inhibition of human IGROV1 cells incubated for 48 hrs by sulforhodamine B assay; type: functional, cell-based; conditions: IGROV-1, 48 h
OVCAR-8 = experiment: Growth inhibition of human OVCAR8 cells assessed as cell growth at 100 uM incubated for 48 hrs by sulforhodamine B assay relative to control; type: functional; conditions: OVCAR-8, 48 h, read-out: Activity
SK-MEL-2 = experiment: Growth inhibition of human SK-MEL-2 cells assessed as cell growth at 0.1 uM incubated for 48 hrs by sulforhodamine B assay relative to control; type: functional; conditions: SK-MEL-2, 48 h, read-out: Activity
SN12C = experiment: Growth inhibition of human SN12C cells incubated for 48 hrs by sulforhodamine B assay; type: functional, cell-based
COLO 205 [1] = experiment: Growth inhibition of human COLO205 cells incubated for 48 hrs by sulforhodamine B assay; type: functional, cell-based; conditions: COLO 205, 48 h
ACHN = experiment: Growth inhibition of human ACHN cells assessed as cell growth at 1 uM incubated for 48 hrs by sulforhodamine B assay relative to control; type: functional; conditions: read-out: Activity
OVCAR-3 = experiment: Growth inhibition of human OVCAR3 cells assessed as cell growth at 1 uM incubated for 48 hrs by sulforhodamine B assay relative to control; type: functional; conditions: OVCAR-3, 48 h, read-out: Activity
NCI-H522 = experiment: Growth inhibition of human NCI-H522 cells assessed as cell growth at 1 uM incubated for 48 hrs by sulforhodamine B assay relative to control; type: functional; conditions: NCI-H522, 48 h, read-out: Activity
Malme-3M [2] = experiment: Growth inhibition of human MALME-3M cells assessed as cell growth at 0.01 uM incubated for 48 hrs by sulforhodamine B assay relative to control; type: functional; conditions: read-out: Activity
MDA-MB-231 [3] = experiment: Growth inhibition of human MDA-MB-231 cells assessed as cell growth at 0.01 uM incubated for 48 hrs by sulforhodamine B assay relative to control; type: functional; conditions: MDA-MB-231, 48 h, read-out: Activity
RPMI-8226 = experiment: Growth inhibition of human RPMI8226 cells assessed as cell growth at 100 uM incubated for 48 hrs by sulforhodamine B assay relative to control; type: functional; conditions: RPMI-8226, 48 h, read-out: Activity
A498 = experiment: Growth inhibition of human A498 cells assessed as cell growth at 0.01 uM incubated for 48 hrs by sulforhodamine B assay relative to control; type: functional; conditions: A498, 48 h, read-out: Activity
NCI-H460 = experiment: Growth inhibition of human NCI-H460 cells assessed as cell growth at 1 uM incubated for 48 hrs by sulforhodamine B assay relative to control; type: functional; conditions: NCI-H460, 48 h, read-out: Activity
T47D = experiment: Growth inhibition of human T47D cells assessed as cell growth at 0.1 uM incubated for 48 hrs by sulforhodamine B assay relative to control; type: functional; conditions: read-out: Activity
NCI-H226 = experiment: Growth inhibition of human NCI-H226 cells assessed as cell growth at 1 uM incubated for 48 hrs by sulforhodamine B assay relative to control; type: functional; conditions: NCI-H226, 48 h, read-out: Activity
Malme-3M [4] = experiment: Growth inhibition of human MALME-3M cells assessed as cell growth at 0.1 uM incubated for 48 hrs by sulforhodamine B assay relative to control; type: functional; conditions: read-out: Activity
SF-295 [5] = experiment: Growth inhibition of human SF295 cells assessed as cell growth at 100 uM incubated for 48 hrs by sulforhodamine B assay relative to control; type: functional; conditions: SF-295, 48 h, read-out: Activity
NCI/ADR-RES = experiment: Growth inhibition of human NCI/ADR-RES cells assessed as cell growth at 1 uM incubated for 48 hrs by sulforhodamine B assay relative to control; type: functional; conditions: read-out: Activity
SR = experiment: Growth inhibition of human SR cells assessed as cell growth at 100 uM incubated for 48 hrs by sulforhodamine B assay relative to control; type: functional; conditions: read-out: Activity
MOLT-4 = experiment: Growth inhibition of human MOLT4 cells assessed as cell growth at 1 uM incubated for 48 hrs by sulforhodamine B assay relative to control; type: functional; conditions: MOLT-4, 48 h, read-out: Activity
OVCAR-5 [6] = experiment: Growth inhibition of human OVCAR5 cells assessed as cell growth at 100 uM incubated for 48 hrs by sulforhodamine B assay relative to control; type: functional; conditions: OVCAR-5, 48 h, read-out: Activity
COLO 205 [7] = experiment: Growth inhibition of human COLO205 cells assessed as cell growth at 100 uM incubated for 48 hrs by sulforhodamine B assay relative to control; type: functional; conditions: COLO 205, 48 h, read-out: Activity
SNB-75 = experiment: Growth inhibition of human SNB75 cells incubated for 48 hrs by sulforhodamine B assay; type: functional, cell-based; conditions: SNB-75, 48 h
SF-295 [8] = experiment: Growth inhibition of human SF295 cells incubated for 48 hrs by sulforhodamine B assay; type: functional, cell-based; conditions: SF-295, 48 h
OVCAR-5 [9] = experiment: Growth inhibition of human OVCAR5 cells incubated for 48 hrs by sulforhodamine B assay; type: functional, cell-based; conditions: OVCAR-5, 48 h
UACC-257 [10] = experiment: Growth inhibition of human UACC257 cells assessed as cell growth at 0.1 uM incubated for 48 hrs by sulforhodamine B assay relative to control; type: functional; conditions: UACC-257, 48 h, read-out: Activity
UACC-257 [11] = experiment: Growth inhibition of human UACC257 cells assessed as cell growth at 0.01 uM incubated for 48 hrs by sulforhodamine B assay relative to control; type: functional; conditions: UACC-257, 48 h, read-out: Activity
HCT-15 = experiment: Growth inhibition of human HCT15 cells assessed as cell growth at 100 uM incubated for 48 hrs by sulforhodamine B assay relative to control; type: functional; conditions: HCT-15, 48 h, read-out: Activity
MDA-MB-231 [12] = experiment: Growth inhibition of human MDA-MB-231 cells assessed as cell growth at 0.1 uM incubated for 48 hrs by sulforhodamine B assay relative to control; type: functional; conditions: MDA-MB-231, 48 h, read-out: Activity
CAKI-1 = experiment: Growth inhibition of human Caki1 cells assessed as cell growth at 100 uM incubated for 48 hrs by sulforhodamine B assay relative to control; type: functional; conditions: CAKI-1, 48 h, read-out: Activity
[13] = read-out: LC50 (the source's name)
[14] = read-out: pLC50 (the source's name) (converted)

## COc1cc(Cl)cc(-c2nn(-c3cccc(NC(=O)Nc4cc(C(F)(F)F)cc(C(F)(F)F)c4)c3)cc2-c2ccncc2)c1
IGROV-1
  IC50: 0.57 µM
IGROV-1; read-out: GI50
  GI50: 0.572 µM
IGROV-1; [13]
  CC50: > 100 µM
IGROV-1; read-out: TGI
  TGI: 12.6 µM
IGROV-1; read-out: pGI50 (converted)
  GI50: 0.575 µM
IGROV-1; [14]
  CC50: > 100 µM
IGROV-1; read-out: pTGI (converted)
  TGI: 12.6 µM
OVCAR-8
  growth at 100 µM: -62%
SK-MEL-2
  growth at 0.1 µM: 95%
SN12C
  IC50: 0.39 µM
SN12C; read-out: GI50
  GI50: 0.356 µM
SN12C; read-out: LC50
  LC50: 0.0295 µM
SN12C; read-out: TGI
  TGI: 1.98 µM
SN12C; read-out: pGI50 (converted)
  GI50: 0.389 µM
SN12C; read-out: pLC50 (converted)
  LC50: 29.5 µM
SN12C; read-out: pTGI (converted)
  TGI: 2 µM
COLO 205 [1]
  IC50: 0.45 µM
COLO 205 [1]; read-out: GI50
  GI50: 0.448 µM
COLO 205 [1]; read-out: TGI
  TGI: 1.88 µM
COLO 205 [1]; read-out: pGI50 (converted)
  GI50: 0.447 µM
COLO 205 [1]; [14]
  CC50: 6.92 µM
COLO 205 [1]; read-out: pTGI (converted)
  TGI: 1.86 µM
ACHN
  growth at 1 µM: 17%
OVCAR-3
  growth at 1 µM: 5%
NCI-H522
  growth at 1 µM: 18%
Malme-3M [2]
  growth at 0.01 µM: 92%
MDA-MB-231 [3]
  growth at 0.01 µM: 97%
RPMI-8226
  growth at 100 µM: -8%
A498
  growth at 0.01 µM: 64%
NCI-H460
  growth at 1 µM: 13%
T47D
  growth at 0.1 µM: 96%
NCI-H226
  growth at 1 µM: 41%
Malme-3M [4]
  growth at 0.1 µM: 87%
SF-295 [5]
  growth at 100 µM: -63%
NCI/ADR-RES
  growth at 1 µM: 48%
SR
  growth at 100 µM: -8%
MOLT-4
  growth at 1 µM: 10%
OVCAR-5 [6]
  growth at 100 µM: -80%
COLO 205 [7]
  growth at 100 µM: -68%
SNB-75
  IC50: 0.85 µM
SNB-75; read-out: GI50
  GI50: 0.848 µM
SNB-75; read-out: TGI
  TGI: 5.83 µM
SNB-75; read-out: pGI50 (converted)
  GI50: 0.851 µM
SNB-75; [14]
  CC50: 70.8 µM
SNB-75; read-out: pTGI (converted)
  TGI: 5.89 µM
SF-295 [8]
  IC50: 0.33 µM
SF-295 [8]; read-out: GI50
  GI50: 0.332 µM
SF-295 [8]; [13]
  CC50: 0.0637 µM
SF-295 [8]; read-out: TGI
  TGI: 1.44 µM
SF-295 [8]; read-out: pGI50 (converted)
  GI50: 0.331 µM
SF-295 [8]; [14]
  CC50: 6.31 µM
SF-295 [8]; read-out: pTGI (converted)
  TGI: 1.45 µM
OVCAR-5 [9]
  IC50: 1.46 µM
OVCAR-5 [9]; read-out: GI50
  GI50: 1.46 µM
OVCAR-5 [9]; [13]
  CC50: > 100 µM
OVCAR-5 [9]; read-out: TGI
  TGI: 12.8 µM
OVCAR-5 [9]; read-out: pGI50 (converted)
  GI50: 1.45 µM
OVCAR-5 [9]; [14]
  CC50: > 100 µM
OVCAR-5 [9]; read-out: pTGI (converted)
  TGI: 12.9 µM
UACC-257 [10]
  growth at 0.1 µM: 94%
UACC-257 [11]
  growth at 0.01 µM: 96%
HCT-15
  growth at 100 µM: -83%
MDA-MB-231 [12]
  growth at 0.1 µM: 90%
CAKI-1
  growth at 100 µM: -61%
